Converted amounts (≈) assume the structure as drawn. Like-named read-outs stand apart in the source and are kept apart here. Starred links: 1 amine or outer side, 2 acyl side, 3 side chain; linkers in the order of their positions; H or OH if unused. Non-standard residues stand in square brackets, D forms with d. Residues, ends and D or L forms follow the SMILES beside them. Groups on a side chain read outwards from the residue. *: point of attachment. C20 diacid = O=C(O)CCCCCCCCCCCCCCCCCCC(=O)*; C18 diacid = O=C(O)CCCCCCCCCCCCCCCCC(=O)*; γGlu = O=C(O)[C@H](CCC(=O)[*:2])N[*:1]; AEEA = NCCOCCOCC(=O)O; Aib = CC(C)(N)C(=O)O
Legend:
human CRF2α receptor = target: T1, human CRF2α receptor (Homo sapiens, UniProt Q13324); experiment: cAMP agonism at human CRF2 α receptor in TeloHEAC cells (Example 7); type: cell-based; settings: cAMP HTRF, TeloHEAC cells stably expressing human CRF2 α
T1 construct: expressed in transfected cells; host or cells: TeloHEAC
T1 sequence (Q13324 1-411): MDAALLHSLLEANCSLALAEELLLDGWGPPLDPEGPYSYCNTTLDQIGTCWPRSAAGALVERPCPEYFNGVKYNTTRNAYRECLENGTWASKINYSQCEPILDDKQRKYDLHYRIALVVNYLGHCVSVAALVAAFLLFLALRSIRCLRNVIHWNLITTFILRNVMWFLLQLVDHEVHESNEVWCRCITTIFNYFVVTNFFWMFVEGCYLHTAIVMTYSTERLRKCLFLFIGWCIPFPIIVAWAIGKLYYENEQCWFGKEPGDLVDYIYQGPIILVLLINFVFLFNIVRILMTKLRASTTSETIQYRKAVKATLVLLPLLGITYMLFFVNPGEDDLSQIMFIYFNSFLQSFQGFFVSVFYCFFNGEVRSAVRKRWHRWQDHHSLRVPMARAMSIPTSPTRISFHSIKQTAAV
Outline: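 Thawed frozen stably transfected cells in HBSS/20 mM HEPES (0% or 0.1% HSA) plus 2 mM IBMX were exposed to compound at 2000 cells/well for 30 min at room temperature. Intracellular cAMP was read by HTRF (665/620 nm ratio) after 1 h lysis; EC50 was derived with 1000 nM urocortin 2 set as 100%.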

[1] = Solubility in buffer systems by UPLC-UV (Example 13); type: physicochemical
Outline: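 Quantitation used UV peak area from UPLC of the 1:10-diluted supernatant, set against a reference-compound standard curve with extinction coefficients adjusted for amino acid sequence.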

rat CRF2R α receptor = experiment: cAMP agonism at rat CRF2R α receptor in A7R5 rat aortic smooth muscle cells (Example 8); type: cell-based; settings: cAMP HTRF, A7R5 rat aortic smooth muscle cell line, 0% HSA
Outline: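 Potency (EC50) is the concentration reaching half-maximal activation, with responses scaled so that 1000 nM urocortin 2 equals 100%. Intracellular cAMP was quantified by homogeneous time-resolved fluorescence at 665/620 nm, 1 h after lysis-buffer reagents. Compound stimulation lasted 30 min at room temperature on 2000 IBMX-treated (2 mM) cells per well in HEPES-buffered HBSS.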

[2] = Physical stability, dynamic light scattering assay (Example 15); type: physicochemical; settings: for Apparent Rh [nm] 4 weeks / Scattering Intensity (I) [%] 4 weeks: 4 weeks at 40° C.
Outline: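 DLS at 837 nm, 150° angle, +25° C; Rh, scattering intensity and mass contribution measured at 0 weeks and after 4 weeks at 40° C. Rh and D compared at 1, 5 and 10 mg/ml as kD surrogate; separate measurements at 300 μM, purity-corrected.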

[3] = 0% HSA, read-out: EC50 [nM], 0% HSA
[4] = 0.1% HSA, read-out: EC50 [nM], 0.1% HSA
[5] = pH 4.5, Solubility in Buffer B [mg/ml]
[6] = pH 7.4, Solubility in Buffer C [mg/ml]
[7] = Buffer C (20 mM phosphate, pH 6.2)
[8] = pH 4.5, Solubility in Buffer A [mg/ml]
[9] = Buffer A (100 mM acetate, pH 4.5)
[10] = Buffer D (20 mM phosphate, pH 7.4)

SMILES | EC50 (human CRF2α receptor; [3]) [nM] | EC50 (human CRF2α receptor; [4]) [nM] | solubility at 1 h [1, 5] [µg/mL] | solubility at 1 h [1, 6] [µg/mL] | EC50 (rat CRF2R α receptor) [nM] | solubility at 1 h ([1]; Buffer B: 100 mM acetate buffer, pH 4.5, 2.7 mg/ml m-cresol, target 10 mg/ml, read-out: Solubility in Buffer B) [µg/mL] | solubility at 1 h ([1]; Buffer C: 100 mM phosphate buffer, pH 7.4, target 10 mg/ml, read-out: Solubility in Buffer C) [µg/mL] | Apparent Rh [nm] 0 weeks [2, 7] [nm] | Scattering Intensity (I) [%] 0 weeks [2, 7] [%] | Apparent Rh [nm] 4 weeks [2, 7] [nm] | Scattering Intensity (I) [%] 4 weeks [2, 7] [%] | solubility at 1 h [1, 8] [µg/mL] | Apparent Rh [nm] 0 weeks [2, 9] [nm] | Scattering Intensity (I) [%] 0 weeks [2, 9] [%] | Apparent Rh [nm] 4 weeks [2, 9] [nm] | Scattering Intensity (I) [%] 4 weeks [2, 9] [%] | Apparent Rh [nm] 0 weeks [2, 10] [nm] | Scattering Intensity (I) [%] 0 weeks [2, 10] [%] | Apparent Rh [nm] 4 weeks [2, 10] [nm] | Scattering Intensity (I) [%] 4 weeks [2, 10] [%]
CC[C@H](C)[C@H](N)C(=O)N[C@H](C(=O)N[C@@H](CC(C)C)C(=O)N[C@@H](CO)C(=O)N[C@@H](CC(C)C)C(=O)N[C@@H](CC(=O)O)C(=O)N[C@H](C(=O)N1CCC[C@H]1C(=O)N[C@H](C(=O)N[C@@H](CCCCN)C(=O)N[C@@H](CC(C)C)C(=O)N[C@@H](CCCCNC(=O)COCCOCCNC(=O)COCCOCCNC(=O)CC[C@H](NC(=O)CCCCCCCCCCCCCCCCC(=O)O)C(=O)O)C(=O)N[C@@H](CCCCN)C(=O)N[C@H](C(=O)N[C@@H](CC(C)C)C(=O)N[C@@H](CC(C)C)C(=O)N[C@@H](CCC(=O)O)C(=O)N[C@@H](CCC(N)=O)C(=O)N[C@@H](CCC(=O)O)C(=O)N[C@@H](CCCCN)C(=O)N[C@@H](CCC(N)=O)C(=O)N[C@@H](CCCCN)C(=O)N[C@@H](CCCCN)C(=O)N[C@@H](CCC(N)=O)C(=O)N[C@@H](CCCNC(=N)N)C(=O)N[C@@H](CCC(=O)O)C(=O)N[C@@H](CCC(N)=O)C(=O)N[C@@H](C)C(=O)N[C@@H](CCC(=O)O)C(=O)N[C@H](C(=O)N[C@@H](CC(N)=O)C(=O)N[C@@H](CCCCN)C(=O)N[C@@H](CCC(N)=O)C(=O)N[C@H](C(=O)N[C@@H](CC(C)C)C(=O)N[C@@H](C)C(=O)N[C@@H](CCC(N)=O)C(=O)N[C@H](C(N)=O)C(C)C)[C@@H](C)CC)[C@@H](C)O)[C@@H](C)CC)[C@@H](C)CC)C(C)C)C(C)C [compound 35] (H-IVLSLDVPIKLK([AEEA-AEEA-γGlu-C18 diacid])KILLEQEKQKKQREQAETNKQILAQV-NH2; N-terminus assumed) | 0.24 | 3.82 | > 8700 | > 9800 | 0.81 |  |  |  |  |  |  |  |  |  |  |  |  |  |  | 
CC[C@H](C)[C@H](NC(=O)[C@H](CCC(N)=O)NC(=O)[C@H](CCC(=O)O)NC(=O)[C@H](CC(C)C)NC(=O)[C@H](CC(C)C)NC(=O)[C@H](CCC(N)=O)NC(=O)[C@H](CCCCN)NC(=O)[C@H](CC(N)=O)NC(=O)[C@H](CCCCN)NC(=O)[C@H](CCC(=O)O)NC(=O)[C@H](C)NC(=O)[C@H](CCC(N)=O)NC(=O)[C@H](CCC(N)=O)NC(=O)[C@H](CCCNC(=N)N)NC(=O)[C@H](CCC(=O)O)NC(=O)[C@H](CCCCN)NC(=O)[C@H](CCCCN)NC(=O)[C@H](CCC(N)=O)NC(=O)[C@H](CCCCN)NC(=O)[C@H](CCC(N)=O)NC(=O)[C@H](CCC(N)=O)NC(=O)[C@H](CCCCN)NC(=O)[C@H](CC(C)C)NC(=O)[C@H](CC(C)C)NC(=O)[C@@H](NC(=O)[C@H](CCC(N)=O)NC(=O)[C@H](CCCCNC(=O)COCCOCCNC(=O)COCCOCCNC(=O)CC[C@H](NC(=O)CCCCCCCCCCCCCCCCCCC(=O)O)C(=O)O)NC(=O)[C@@H](NC(=O)[C@H](CCCCN)NC(=O)[C@@H](NC(=O)[C@@H]1CCCN1C(=O)[C@@H](NC(=O)[C@H](CC(=O)O)NC(=O)[C@H](CC(C)C)NC(=O)[C@H](CO)NC(=O)[C@H](CC(C)C)NC(=O)[C@@H](NC(=O)[C@@H](N)Cc1ccccc1)[C@@H](C)O)C(C)C)[C@@H](C)O)[C@@H](C)CC)[C@@H](C)CC)C(N)=O [compound 59] (H-FTLSLDVPTKIK([AEEA-AEEA-γGlu-C20 diacid])QILLKQQKQKKERQQAEKNKQLLEQI-NH2) | 0.15 | 17.4 |  |  | 0.34 | > 9400 | > 9100 | 3.66 ± 0.05 | 100 ± 0 | 3.75 ± 0.08 | 100 ± 0 |  |  |  |  |  |  |  |  | 
CC[C@H](C)[C@H](N)C(=O)N[C@H](C(=O)N[C@@H](CC(C)C)C(=O)N[C@@H](CO)C(=O)N[C@@H](CC(C)C)C(=O)N[C@@H](CC(=O)O)C(=O)N[C@H](C(=O)N1CCC[C@H]1C(=O)N[C@H](C(=O)N[C@@H](CCCCN)C(=O)N[C@@H](CC(C)C)C(=O)N[C@@H](CCCCNC(=O)COCCOCCNC(=O)COCCOCCNC(=O)CC[C@H](NC(=O)CCCCCCCCCCCCCCCCC(=O)O)C(=O)O)C(=O)N[C@@H](CCCCN)C(=O)N[C@H](C(=O)N[C@@H](CC(C)C)C(=O)N[C@@H](CC(C)C)C(=O)N[C@@H](CCCCN)C(=O)N[C@@H](CCC(N)=O)C(=O)N[C@@H](CCC(=O)O)C(=O)N[C@@H](CCCNC(=N)N)C(=O)N[C@@H](CCC(N)=O)C(=O)N[C@@H](CCCCN)C(=O)N[C@@H](CCCCN)C(=O)NC(C)(C)C(=O)N[C@@H](CCCNC(=N)N)C(=O)N[C@@H](CCC(=O)O)C(=O)N[C@@H](CCC(N)=O)C(=O)N[C@@H](C)C(=O)N[C@@H](CCC(=O)O)C(=O)N[C@@H](CCCCN)C(=O)N[C@@H](CC(N)=O)C(=O)N[C@@H](CCCCN)C(=O)N[C@@H](CCC(N)=O)C(=O)N[C@H](C(=O)N[C@@H](CC(C)C)C(=O)N[C@@H](C)C(=O)N[C@@H](CCC(N)=O)C(=O)N[C@H](C(N)=O)C(C)C)[C@@H](C)CC)[C@@H](C)CC)[C@@H](C)CC)C(C)C)C(C)C [compound 99] (H-IVLSLDVPIKLK([AEEA-AEEA-γGlu-C18 diacid])KILLKQERQKK[Aib]REQAEKNKQILAQV-NH2) | 0.06 | 1.6 |  |  | 0.62 |  |  |  |  |  |  | > 10000 | 3.32 ± 0.18 | 100 ± 1 | 3.42 ± 0.04 | 99 ± 1 |  |  |  | 
CC[C@H](C)[C@H](N)C(=O)N[C@H](C(=O)N[C@@H](CC(C)C)C(=O)N[C@@H](CO)C(=O)N[C@@H](CC(C)C)C(=O)N[C@@H](CC(=O)O)C(=O)N[C@@H](C(=O)N1CCC[C@H]1C(=O)N[C@H](C(=O)N[C@@H](CCCCN)C(=O)N[C@@H](CC(C)C)C(=O)N[C@@H](CCCCNC(=O)COCCOCCNC(=O)COCCOCCNC(=O)CC[C@H](NC(=O)CCCCCCCCCCCCCCCCC(=O)O)C(=O)O)C(=O)N[C@@H](CCC(N)=O)C(=O)N[C@H](C(=O)N[C@@H](CC(C)C)C(=O)N[C@@H](CC(C)C)C(=O)N[C@@H](CCCCN)C(=O)N[C@@H](CCC(N)=O)C(=O)N[C@@H](CCC(=O)O)C(=O)N[C@@H](CCCNC(=N)N)C(=O)N[C@@H](CCC(N)=O)C(=O)N[C@@H](CCCCN)C(=O)NC(C)(C)C(=O)N[C@@H](CCC(N)=O)C(=O)N[C@@H](CCCNC(=N)N)C(=O)N[C@@H](CCC(N)=O)C(=O)N[C@@H](CCC(N)=O)C(=O)N[C@@H](C)C(=O)N[C@@H](CCC(=O)O)C(=O)N[C@@H](CCCCN)C(=O)N[C@@H](CC(N)=O)C(=O)N[C@@H](CCCCN)C(=O)N[C@@H](CCC(N)=O)C(=O)N[C@H](C(=O)N[C@@H](CC(C)C)C(=O)N[C@@H](C)C(=O)N[C@@H](CCC(N)=O)C(=O)N[C@H](C(N)=O)C(C)C)[C@@H](C)CC)[C@@H](C)CC)[C@@H](C)CC)C(C)C)C(C)C [compound 135] (H-IVLSLD[dV]PIKLK([AEEA-AEEA-γGlu-C18 diacid])QILLKQERQK[Aib]QRQQAEKNKQILAQV-NH2; N-terminus assumed) | 0.04 | 1.48 | > 9200 | 7500 (≈ 1450 µM) | 0.13 |  |  |  |  |  |  | > 8400 | 2.83 ± 0.12 | 99 ± 1 | 3.01 ± 0.03 | 99 ± 1 | 2.54 ± 0.16 | 100 ± 0 | 2.63 ± 0.15 | 100 ± 0

— patent US12679878B2, “CRF2 receptor agonists and their use in therapy” (SANOFI, priority 2020, dated 2026)
